Series [1] is described as follows: Toxicity in Artemia salina assessed as lethality after 24 hrs.
In the next series the test system is Chattonella marina. The series is described as follows: Growth inhibition of Chattonella marina at 100 ug/ml after 12 hrs by light microscopy. The format is functional.
The subject of another series is Heterosigma akashiwo. The experiment in a line: Growth inhibition of Heterosigma akashiwo at 100 ug/ml after 12 hrs by light microscopy. The format is functional.
The subject of the next series is Prorocentrum donghaiense. The series is described as follows: Growth inhibition of Prorocentrum donghaiense at 100 ug/ml after 12 hrs by light microscopy. The format is functional.
A further series relates to Scrippsiella trochoidea. The experiment in a line: Growth inhibition of Scrippsiella trochoidea at 100 ug/ml after 12 hrs by light microscopy. In kind it is functional.
The next series has as its system Staphylococcus aureus. The series is described as follows: Antimicrobial activity against Staphylococcus aureus after 24 hrs by agar diffusion method. In kind it is functional. (A growth-free zone around the sample is the usual read-out of agar diffusion tests.)
In another series the test system is Escherichia coli. The experiment in a line: Antimicrobial activity against Escherichia coli after 24 hrs by agar diffusion method. In kind it is functional.
For the next series, the system named is Colletotrichum lagenaria. The experiment in a line: Antimicrobial activity against Colletotrichum lagenarium after 24 hrs by agar diffusion method. In kind it is functional.
The test system of series [2] is Colletotrichum gloeosporioides. The series is described as follows: Antimicrobial activity against Colletotrichum gloeosporioides after 24 hrs by agar diffusion method. The format is functional.

Converted amounts (≈) assume the structure as drawn.

The LC50 is the concentration lethal to half of the exposed cells or organisms. Regarding “POTASSIUM DICHROMATE [listing 1 of 2 here]”, the 50% lethal concentration (LC50) in series [1] (24 h) was determined as 20.8 µg/mL.
Turning to “POTASSIUM DICHROMATE [listing 2 of 2 here]”, the growth inhibition (GI) in the series on Chattonella marina was 74.4%; in the series on Heterosigma akashiwo, 78.4%; in the series on Prorocentrum donghaiense it was 71.7%; in the series with Scrippsiella trochoidea, 71.9%.
Broadly, the MIC is the lowest concentration that inhibits growth of the organism. A lower MIC goes with a more susceptible organism. In turn, `CCCC[C@@H](C)[C@@H]1[C@@H]2C=C[C@H]3[C@H](C)[C@@H](O)[C@@H](O)[C@@H]3[C@]1(C)OC2=O` gave an MIC in the series with Staphylococcus aureus of 12.4 µg/mL (≈ 38.5 µM). For the same molecule, the 50% lethal concentration (LC50) at 24 h in series [1] was determined as 65.6 µg/mL (≈ 203 µM). The values for the growth inhibition (GI) in the series on Chattonella marina, in the series with Prorocentrum donghaiense and with Scrippsiella trochoidea were 37.2%, 14.1% and -47.2%, respectively. Further, the inhibition of growth at 100 µg/mL with Heterosigma akashiwo (read-out: GI) was 23.4%.
For `O=C(N[C@H](CO)[C@H](O)c1ccc([N+](=O)[O-])cc1)C(Cl)Cl` [CHLORAMPHENICOL], the MIC in the series on Staphylococcus aureus worked out at 0.8 µg/mL (≈ 2.48 µM); with Escherichia coli it was 1.6 µg/mL (≈ 4.95 µM).
Take `C[C@@H]1[C@H](O)[C@@H](C)/C=C/C=C/C=C/C=C/C=C/C=C/C=C/[C@H](O[C@@H]2O[C@H](C)[C@@H](O)[C@H](N)[C@@H]2O)C[C@@H]2O[C@](O)(C[C@@H](O)C[C@@H](O)[C@H](O)CC[C@@H](O)C[C@@H](O)CC(=O)O[C@H]1C)C[C@H](O)[C@H]2C(=O)O` [AMPHOTERICIN B]: the MIC (in the series on Colletotrichum lagenaria; in series [2]) was 12.4 µg/mL (≈ 13.4 µM) each time.

These data come from ChEMBL document CHEMBL3853335, “Citrinovirin with a new norditerpene skeleton from the marine algicolous fungus Trichoderma citrinoviride” (Bioorg Med Chem Lett, 2016).
